In PMC9864330, “Two New Alkaloids and a New Butenolide Derivative from the Beibu Gulf Sponge-Derived Fungus Penicillium sp. SCSIO 41413” (Marine Drugs, 2022):

Target: PI3K (phosphatidylinositol 3-kinase)
Experiment: PI3K enzyme activity assay, dose response […]
Type: biochemical

Row | IC50 [µM] | SMILES
1 | 9.8 | O=C1OC(O)C(Cc2ccc(O)cc2)=C1c1ccc(O)c(O)c1 (racemic) [compound 12, 8-hydroxyhelvafuranone]
2 | 1.7 | O=C1OCC(Cc2ccc(O)c(O)c2)=C1c1ccc(O)c(O)c1 [compound 11, eutypoid F]
